34 compounds from US10669283B2, “Compound and pharmacologically acceptable salt thereof” (MEIJI SEIKA PHARMA CO., LTD., priority 2016, dated 2020) can be followed below.

Molecules are shown by their SMILES.

The first assay deals with PDE4. In words: PDE4 inhibition, scintillation proximity assay (SPA).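 As to PDE4 Inhibitory Activity (concentration for the inhibition rate of 50%): A below 100 nM B 100 to below 1000 nM C 1000 nM or more.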 The conditions noted are these: scintillation proximity assay (SPA); evaluated as classes A, B, C; read-out: PDE4 Inhibitory Activity (concentration for the inhibition rate of 50%). In kind it is biochemical. An outline of the steps:
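Compound pre-diluted 1:10 in 50 mM Tris-HCl pH 7.4, 8.3 mM MgCl2, 1.7 mM EGTA, 3 mg/mL BSA, then incubated with PDE4 and [2,8-3H]-cAMP for 120 min at room temperature. Product captured on ZnSO4-containing YSi-SPA beads for 15 min; radioactivity counted against no-enzyme blank and DMSO control.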
Turning to `CC(C)(O)c1cc(-c2nccs2)c2oc(N3CC4CCC(C3)N4)nc2c1OC(F)(F)F` [Example 195, 2-(2-(3,8-Diazabicyclo[3.2.1]octan-3-yl)-7-(thiazol-2-yl)-4-(trifluoromethoxy)benzo[d]oxazol-5-yl)propan-2-ol], the IC50 was below 100 nM.

For the compound `OC(c1cc(-c2nccs2)c2oc(N3CC4CCC(C3)N4)nc2c1C(F)(F)F)C(F)F` (stereo not shown) [Example 183, 1-(2-(3,8-Diazabicyclo[3.2.1]octan-3-yl)-7-(thiazol-2-yl)-4-(trifluoromethyl)benzo[d]oxazol-5-yl)-2,2-difluoroethan-1-ol], the IC50 was below 100 nM.

As for `CCOC(=O)c1cc(-n2cccn2)c2oc(N3CC4CCCC(C3)N4)nc2c1` [Example 93, Ethyl 2-(3,9-diazabicyclo[3.3.1]nonan-3-yl)-7-(1H-pyrazol-1-yl)benzo[d]oxazole-5-carboxylate], the IC50 lay within 100 to 1000 nM.

Consider `OCc1cc(-c2nccs2)c2oc(N3CC4CCC(C3)N4)nc2c1OC(F)(F)F` [Example 201, (2-(3,8-Diazabicyclo[3.2.1]octan-3-yl)-7-(thiazol-2-yl)-4-(trifluoromethoxy)benzo[d]oxazol-5-yl)methanol], for which the IC50 was below 100 nM.

Turning to `COC(C)(C)c1cc(-c2nccs2)c2oc(N3CC4CC(C3)N4)nc2c1` [Example 174, 2-(3,6-Diazabicyclo[3.1.1]heptan-3-yl)-5-(2-methoxypropan-2-yl)-7-(thiazol-2-yl)benzo[d]oxazole], the IC50 was below 100 nM.

Take `c1csc(-c2ccc(-c3nccs3)c3oc(N4CC5CCC(C4)N5)nc23)n1` [Example 85, 2-(3,8-Diazabicyclo[3.2.1]octan-3-yl)-4,7-di(thiazol-2-yl)benzo[d]oxazole]: the IC50 is below 100 nM.

Consider `CC(=O)c1cc(-c2nccs2)c2oc(N3CC4CC(C3)N4)nc2c1OC(F)(F)F` [Example 212, 1-(2-(3,6-Diazabicyclo[3.1.1]heptan-3-yl)-7-(thiazol-2-yl)-4-(trifluoromethoxy)benzo[d]oxazol-5-yl)ethan-1-one], for which the IC50 is below 100 nM.

As for `CC(C)(O)c1cc(-c2nccs2)c2oc(N3CC4CC(C3)N4)nc2c1OC(F)(F)F` [Example 196, 2-(2-(3,6-Diazabicyclo[3.1.1]heptan-3-yl)-7-(thiazol-2-yl)-4-(trifluoromethoxy)benzo[d]oxazol-5-yl)propan-2-ol], the IC50 is below 100 nM.

As for `COc1cc(-c2nccs2)c2oc(N3CC4CC(C3)N4)nc2c1` [Example 61, 2-(3,6-Diazabicyclo[3.1.1]heptan-3-yl)-5-methoxy-7-(thiazol-2-yl)benzo[d]oxazole], the IC50 is below 100 nM.

For the compound `OC(c1cc(-n2cccn2)c2oc(N3CC4CCC(C3)N4)nc2c1)C(F)(F)F` (stereo not shown) [Example 140, 1-(2-(3,8-Diazabicyclo[3.2.1]octan-3-yl)-7-(1H-pyrazol-1-yl)benzo[d]oxazol-5-yl)-2,2,2-trifluoroethan-1-ol], the IC50 was below 100 nM.

In the case of `OC1(c2cc(-c3nccs3)c3oc(N4CC5CCC(C4)N5)nc3c2OC(F)(F)F)CC1` [Example 274, 1-(2-(3,8-Diazabicyclo[3.2.1]octan-3-yl)-7-(thiazol-2-yl)-4-(trifluoromethoxy)benzo[d]oxazol-5-yl)cyclopropan-1-ol], the IC50 was below 100 nM.

Consider `OC(COc1ccc(-c2nccs2)c2oc(N3CC4CC(C3)N4)nc12)C(F)(F)F` (stereo not shown) [Example 277, 3-((2-(3,6-Diazabicyclo[3.1.1]heptan-3-yl)-7-(thiazol-2-yl)benzo[d]oxazol-4-yl)oxy)-1,1,1-trifluoropropan-2-ol], for which the IC50 was below 100 nM.

For the compound `CC(O)c1cc(-c2nccs2)c2oc(N3CC4CC(C3)N4)nc2c1OC(F)(F)F` (stereo not shown) [Example 273, 1-(2-(3,6-Diazabicyclo[3.1.1]heptan-3-yl)-7-(thiazol-2-yl)-4-(trifluoromethoxy)benzo[d]oxazol-5-yl)ethan-1-ol], the IC50 is below 100 nM.

As for `CC(O)c1cc(-c2nccs2)c2oc(N3CC4CC(C3)N4)nc2c1OC(F)(F)F` (stereo not shown) [Example 203, 1-(2-(3,6-Diazabicyclo[3.1.1]heptan-3-yl)-7-(thiazol-2-yl)-4-(trifluoromethoxy)benzo[d]oxazol-5-yl)ethan-1-ol], the IC50 is below 100 nM.

`COC(C)(C)c1cc(-c2nccs2)c2oc(N3CC4CC(C3)N4)nc2c1C(F)(F)F` [Example 176, 2-(3,6-Diazabicyclo[3.1.1]heptan-3-yl)-5-(2-methoxypropan-2-yl)-7-(thiazol-2-yl)-4-(trifluoromethyl)benzo[d]oxazole]: the IC50 was below 100 nM.

As to `FC(F)(F)Oc1c(Cl)cc(-c2ccco2)c2oc(N3CC4CCC(C3)N4)nc12` [Example 6, 2-(3,8-Diazabicyclo[3.2.1]octan-3-yl)-5-chloro-7-(furan-2-yl)-4-(trifluoromethoxy)benzo[d]oxazole], the IC50 was below 100 nM.

With `CCOC(=O)c1cc(-n2cccn2)c2oc(N3CC4CCC(C3)N4)nc2c1` [Example 90, Ethyl 2-(3,8-diazabicyclo[3.2.1]octan-3-yl)-7-(1H-pyrazol-1-yl)benzo[d]oxazole-5-carboxylate], the IC50 lay in the range of 100 to 1000 nM.

In the case of `CC(C)c1cc(-c2nccs2)c2oc(N3CC4COCC(C3)N4)nc2c1` [Example 23, 7-(5-Isopropyl-7-(thiazol-2-yl)benzo[d]oxazol-2-yl)-3-oxa-7,9-diazabicyclo[3.3.1]nonane], the IC50 is 100 to 1000 nM.

Turning to `CC(=O)Nc1ccc(-c2nccs2)c2oc(N3CC4CCCC(C3)N4)nc12` [Example 34, N-(2-(3,9-Diazabicyclo[3.3.1]nonan-3-yl)-7-(thiazol-2-yl)benzo[d]oxazol-4-yl)acetamide], the IC50 is below 100 nM.

As for `CC(=O)c1cc(-c2nccs2)c2oc(N3CC4CC(C3)N4)nc2c1C(F)(F)F` [Example 180, 1-(2-(3,6-Diazabicyclo[3.1.1]heptan-3-yl)-7-(thiazol-2-yl)-4-(trifluoromethyl)benzo[d]oxazol-5-yl)ethan-1-one], the IC50 was below 100 nM.

As for `CC(=O)c1cc(-c2nccs2)c2oc(N3CC4CCC(C3)N4)nc2c1` [Example 108, 1-(2-(3,8-Diazabicyclo[3.2.1]octan-3-yl)-7-(thiazol-2-yl)benzo[d]oxazol-5-yl)ethan-1-one], the IC50 was below 100 nM.

Regarding `CC(=O)OC(c1cc(-c2nccs2)c2oc(N3CC4CCC(C3)N4)nc2c1)C(F)(F)F` (stereo not shown) [Example 141, 1-(2-(3,8-Diazabicyclo[3.2.1]octan-3-yl)-7-(thiazol-2-yl)benzo[d]oxazol-5-yl)-2,2,2-trifluoroethyl acetate], the IC50 is below 100 nM.

Regarding `FC(F)(F)COc1cc(-c2nccs2)c2oc(N3CC4CC(C3)N4)nc2c1` [Example 67, 2-(3,6-Diazabicyclo[3.1.1]heptan-3-yl)-7-(thiazol-2-yl)-5-(2,2,2-trifluoroethoxy)benzo[d]oxazole], the IC50 is below 100 nM.

In the case of `N#CCOc1ccc(-c2nccs2)c2oc(N3CC4CCC(C3)N4)nc12` [Example 82, 2-((2-(3,8-Diazabicyclo[3.2.1]octan-3-yl)-7-(thiazol-2-yl)benzo[d]oxazol-4-yl)oxy)acetonitrile], the IC50 was below 100 nM.

Regarding `CC(C)(O)c1cc(-c2cscn2)c2oc(N3CC4CC(C3)N4)nc2c1OC(F)(F)F` [Example 288, 2-(2-(3,6-Diazabicyclo[3.1.1]heptan-3-yl)-7-(thiazol-4-yl)-4-(trifluoromethoxy)benzo[d]oxazol-5-yl)propan-2-ol], the IC50 is below 100 nM.

As for `FC(F)(F)c1c(Cl)cc(-c2nccs2)c2oc(N3CC4CCC(C3)N4)nc12` [Example 20, 2-(3,8-Diazabicyclo[3.2.1]octan-3-yl)-5-chloro-7-(thiazol-2-yl)-4-(trifluoromethyl)benzo[d]oxazole], the IC50 was below 100 nM.

As for `COC(C)(C)c1cc(-c2nccs2)c2oc(N3CC4CCC(C3)N4)nc2c1` [Example 175, 2-(3,8-Diazabicyclo[3.2.1]octan-3-yl)-5-(2-methoxypropan-2-yl)-7-(thiazol-2-yl)benzo[d]oxazole], the IC50 is below 100 nM.

Still in this assay, the particulars now being: scintillation proximity assay; class symbols; read-out: PDE4 Inhibitory Activity.
With `NS(=O)(=O)c1ccc(-c2nccs2)c2oc(N3CC4CC(C3)N4)nc12` [Example 396, 2-(3,6-diazabicyclo[3.1.1]heptan-3-yl)-7-(thiazol-2-yl) benzo[d]oxazole-4-sulfonamide], the IC50 is below 100 nM.

Turning to `CNS(=O)(=O)c1ccc(-c2nccs2)c2oc(N3CC4CC(C3)N4)nc12` [Example 386, 2-(3,6-diazabicyclo[3.1.1]heptan-3-yl)-N-methyl-7-(thiazol-2-yl)benzo[d] oxazole-4-sulfonamide], the IC50 is below 100 nM.

Turning to `ON1C2CCC1CN(c1nc3c(OC(F)(F)F)c(Cl)cc(-c4nccs4)c3o1)C2` [Example 375, 3-(5-chloro-7-(thiazol-2-yl)-4-(trifluoro-methoxy)benzo[d]oxazol-2-yl)-3,8-diazabicyclo[3.2.1] octan-8-ol], the IC50 is below 100 nM.

In the case of `c1csc(-c2ccc(C3CCC3)c3nc(N4CC5CC(C4)N5)oc23)n1` [Example 414, 2-(3,6-diazabicyclo[3.1.1]heptan-3-yl)-4-cyclobutyl-7-(thiazol-2-yl)benzo[d]oxazole], the IC50 was below 100 nM.

Take `CC(O)c1cc(-c2nccs2)c2oc(N3CC4CCC(C3)N4O)nc2c1C(F)(F)F` (stereo not shown) [Example 384, 3-(5-(1-hydroxy-ethyl)-7-(thiazol-2-yl)-4-(trifluoro-methyl)benzo[d]oxazol-2-yl)-3,8-diazabicyclo[3.2.1] octan-8-ol]: the IC50 was above 1000 nM.

Take `CC(C)(O)c1cc(-c2nccs2)c2oc(N3CC4CCC(C3)N4O)nc2c1OC(F)(F)F` [Example 368, 3-(5-(2-hydroxy-propan-2-yl)-7-(thiazol-2-yl)-4-(trifluoromethoxy)benzo[d]oxazol-2-yl)-3,8-diazabicyclo [3.2.1]octan-8-ol]: the IC50 was 100 to 1000 nM.

Regarding `CC(O)(O)C(F)(F)Oc1ccc(-c2nccs2)c2oc(N3CC4CC(C3)N4)nc12` [Example 377, 1-((2-(3,6-diazabicyclo[3.1.1]heptan-3-yl)-7-(thiazol-2-yl)benzo[d]oxazol-4-yl)oxy)-1,1-difluoropropane-2,2-diol], the IC50 is below 100 nM.
